Laboratory results: PubChem BioAssay (NCI)
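A five-concentration, 48-hour dose response in 96-well plates underlies each endpoint, interpolated linearly between surrounding concentrations. Definition used: TGI = concentration required for complete inhibition of growth.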

How the values were obtained:
Test in all cases: NCI tumour cell line growth inhibition, 48 h
T-47D breast = system: T-47D breast
RPMI-8226 leukemia = system: RPMI-8226 leukemia
ACHN renal = system: ACHN renal
M14 melanoma = system: M14 melanoma
HS 578T breast = system: HS 578T breast
CCRF-CEM leukemia = system: CCRF-CEM leukemia
HCC-2998 colon = system: HCC-2998 colon
NCI-H226 lung = system: NCI-H226 lung
TK-10 renal = system: TK-10 renal
HOP-92 NSCLC = system: HOP-92 NSCLC
DU-145 prostate = system: DU-145 prostate
CAKI-1 renal = system: CAKI-1 renal
MDA-N = system: MDA-N
PC-3 prostate = system: PC-3 prostate
SK-OV-3 ovarian = system: SK-OV-3 ovarian
HCT-15 colon = system: HCT-15 colon
SF-295 CNS = system: SF-295 CNS
HCT-116 colon = system: HCT-116 colon
SNB-78 CNS = system: SNB-78 CNS
HOP-18 NSCLC = system: HOP-18 NSCLC

Question: C=CCn1c(=O)ccn(COCCO)c1=O was tested. Which TGI (T-47D breast) did it give?
Answer: The TGI was greater than 100 µM.

Question: What about the TGI (RPMI-8226 leukemia) of the same compound?
Answer: Its TGI is greater than 100 µM.

Question: And the TGI (ACHN renal)?
Answer: The TGI was greater than 100 µM.

Question: What about the TGI (M14 melanoma) of the same compound?
Answer: Its TGI is greater than 100 µM.

Question: And the TGI (HS 578T breast)?
Answer: Its TGI is greater than 100 µM.

Question: And the TGI (CCRF-CEM leukemia)?
Answer: Its TGI is greater than 100 µM.

Question: What about the TGI (HCC-2998 colon) of the same compound?
Answer: Its TGI is greater than 100 µM.

Question: And the TGI (NCI-H226 lung)?
Answer: The TGI was greater than 100 µM.

Question: And the TGI (TK-10 renal)?
Answer: Its TGI is greater than 100 µM.

Question: What about the TGI (HOP-92 NSCLC) of the same compound?
Answer: The TGI was greater than 100 µM.

Question: What about the TGI (DU-145 prostate) of the same compound?
Answer: Its TGI is greater than 100 µM.

Question: What about the TGI (CAKI-1 renal) of the same compound?
Answer: The TGI was greater than 100 µM.

Question: And the TGI (MDA-N)?
Answer: The TGI was greater than 100 µM.

Question: What about the TGI (PC-3 prostate) of the same compound?
Answer: The TGI was greater than 100 µM.

Question: With COc1nc(C#CCC(C)O)nc(OC)n1 (stereo not drawn) as the compound, how does the TGI (T-47D breast) read?
Answer: Its TGI is greater than 100 µM.

Question: What about the TGI (ACHN renal) of the same compound?
Answer: The TGI was 33.3 µM.

Question: And the TGI (M14 melanoma)?
Answer: The TGI was 39.6 µM.

Question: What about the TGI (SK-OV-3 ovarian) of the same compound?
Answer: The TGI was greater than 100 µM.

Question: What about the TGI (HCT-15 colon) of the same compound?
Answer: Its TGI is 45.6 µM.

Question: And the TGI (HS 578T breast)?
Answer: The TGI was 72 µM.

Question: What about the TGI (SF-295 CNS) of the same compound?
Answer: The TGI was greater than 100 µM.

Question: And the TGI (HCT-116 colon)?
Answer: The TGI was 43.6 µM.

Question: What about the TGI (TK-10 renal) of the same compound?
Answer: The TGI was 57.7 µM.

Question: What about the TGI (DU-145 prostate) of the same compound?
Answer: The TGI was 52.8 µM.

Question: And the TGI (CAKI-1 renal)?
Answer: Its TGI is 31.9 µM.

Question: What about the TGI (MDA-N) of the same compound?
Answer: Its TGI is greater than 100 µM.

Question: And the TGI (PC-3 prostate)?
Answer: The TGI was 54.6 µM.

Question: For O=S(=O)(O)c1cc2ccc1/C=C\c1ccc(cc1S(=O)(=O)O)N=Nc1ccc(c(S(=O)(=O)O)c1)/C=C\c1ccc(cc1S(=O)(=O)O)N=N2, which TGI (SNB-78 CNS) is on record?
Answer: The TGI was greater than 100 µM.

Question: And the TGI (HOP-18 NSCLC)?
Answer: Its TGI is greater than 100 µM.

Question: What about the TGI (RPMI-8226 leukemia) of the same compound?
Answer: The TGI was greater than 100 µM.

Question: And the TGI (SK-OV-3 ovarian)?
Answer: Its TGI is greater than 100 µM.

Question: What about the TGI (HCT-15 colon) of the same compound?
Answer: The TGI was greater than 100 µM.

Question: And the TGI (SF-295 CNS)?
Answer: The TGI was greater than 100 µM.

Question: What about the TGI (CCRF-CEM leukemia) of the same compound?
Answer: Its TGI is greater than 100 µM.

Question: And the TGI (HCC-2998 colon)?
Answer: The TGI was greater than 100 µM.

Question: What about the TGI (NCI-H226 lung) of the same compound?
Answer: Its TGI is greater than 100 µM.

Question: What about the TGI (HCT-116 colon) of the same compound?
Answer: Its TGI is greater than 100 µM.

Question: And the TGI (HOP-92 NSCLC)?
Answer: The TGI was greater than 100 µM.
